In patent publication US8216973B2, “2-[(1H-pyrazole-4-ylmethyl)-sulfonyl]-oxazole-derivative, 2-[(1H-pyrazole-4-ylmethyl)-sulfanyl]-oxazole-derivatives, and chiral 2-[(1H-pyrazole-4-ymethyl)sulfinyl]oxazole derivatives, methods for the production thereof, and use thereof as herbicides and plant growth regulators” (Bayer Cropscience AG, priority 2008, dated 2012):

Experiments:
[1] = system: harmful plants such as Echinochloa crus galli, Lolium multiflorum, and Setaria viridis; experiment: Post-emergence herbicidal effect, greenhouse pot test; format: in vivo, monocotyledonous and dicotyledonous weed plants; conditions: post-emergence method, application rate of 0.32 kg and less of active substance per hectare, rated visually after about 3 weeks
Experimental: 2. Post-Emergence Herbicidal Effect and Crop Plant Compatibility
Seeds of monocotyledonous and dicotyledonous weed and crop plants are placed in sandy loam in wood-fiber pots, covered with soil and cultivated in a greenhouse under good growth conditions. 2 to 3 weeks after sowing, the test plants are treated at the one-leaf stage. The compounds according to the invention, formulated in the form of wettable powders (WP), are then sprayed as aqueous suspension at a water application rate of 600 l/ha (converted) with the addition of 0.2% of wetting agent onto the green parts of the plants. After the test plants have been kept in the greenhouse under optimum growth conditions for about 3 weeks, the activity of the preparations is rated visually in comparison to untreated controls (herbicidal activity in percent (%): 100% activity=the plants have died, 0% activity=like control plants).

[2] = system: harmful plants such as Avena fatua, Stellaria media, Echinochloa crus galli, Lolium multiflorum, Setaria viridis, Amaranthus retroflexus, Veronica persica …; experiment: Pre-emergence herbicidal effect, greenhouse pot test; format: in vivo, monocotyledonous or dicotyledonous weed plants; conditions: pre-emergence method, application rate of 0.32 kg and less of active substance per hectare, scored visually after about 3 weeks
From the text: 1. Pre-Emergence Herbicidal Effect and Crop Plant Compatibility
Seeds of monocotyledonous or dicotyledonous weed plants or crop plants are placed in sandy loam in wood-fiber pots and covered with soil. The compounds according to the invention, formulated in the form of wettable powders (WP), are then applied as aqueous suspension at a water application rate of 600 l/ha (converted) with the addition of 0.2% of wetting agent to the surface of the covering soil.
After the treatment, the pots are placed in a greenhouse and kept under good growth conditions for the test plants. After about 3 weeks, the effect of the preparations is scored visually in comparison with untreated controls (herbicidal effect in percent (%): 100% activity=the plants have died, 0% activity=like control plants).

Compound: Cn1nc(C(F)(F)F)c(C[S+]([O-])c2ncco2)c1OC(F)F (racemic) [compound 50, 2-({[5-(Difluoromethoxy)-1-methyl-3-(trifluoromethyl)-1H-pyrazol-4-yl]methyl}sulfinyl)-1,3-oxazole]
- herbicidal activity against harmful plants [1]: very good herbicidal activity
- herbicidal activity against harmful plants [2]: very good herbicidal activity

Compound: Cn1nc(C(F)(F)F)c(C[S+]([O-])c2ncc(Cl)o2)c1OC(F)F (centres unmarked) [Compound No. 542, 5-Chloro-2-({[5-(difluoromethoxy)-1-methyl-3-(trifluoromethyl)-1H-pyrazol-4-yl]methyl}sulfinyl)-1,3-oxazole]
- herbicidal activity against harmful plants [1]: very good herbicidal activity
- herbicidal activity against harmful plants [2]: very good herbicidal activity

Compound: Cn1nc(C(F)(F)F)c(CS(=O)(=O)c2ncc(Br)o2)c1OC(F)F [Compound No. 789, 5-Bromo-2-({[5-(difluoromethoxy)-1-methyl-3-(trifluoromethyl)-1H-pyrazol-4-yl]methyl}sulfonyl)-1,3-oxazole]
- herbicidal activity against harmful plants [2]: very good herbicidal activity

Compound: Cn1nc(C(F)(F)F)c(C[S@+]([O-])c2ncco2)c1OC(F)F [compound 2285, 2-[(S)-{[5-(Difluoromethoxy)-1-methyl-3-(trifluoromethyl)-1H-pyrazol-4-yl]methyl}sulfinyl]-1,3-oxazole]
- herbicidal activity against harmful plants [1]: very good herbicidal activity
- herbicidal activity against harmful plants [2]: very good herbicidal activity

Compound: Cn1nc(C(F)(F)F)c(C[S@+]([O-])c2ncc(Cl)o2)c1OC(F)F [Compound No. 2449]
- herbicidal activity against harmful plants [2]: very good herbicidal activity

Compound: Cn1nc(C(F)(F)F)c(C[S+]([O-])c2ncco2)c1Cl (centres unmarked) [Compound No. 35, 2-({[5-(Chloro)-1-methyl-3-(trifluoromethyl)-1H-pyrazol-4-yl]methyl}sulfinyl)-1,3-oxazole]
- herbicidal activity against harmful plants [1]: very good herbicidal activity
- herbicidal activity against harmful plants [2]: very good herbicidal activity

Compound: Cn1nc(C(F)(F)F)c(CS(=O)(=O)c2ncco2)c1OC(F)F [compound 51, 2-({[5-(Difluoromethoxy)-1-methyl-3-(trifluoromethyl)-1H-pyrazol-4-yl]methyl}sulfonyl)-1,3-oxazole]
- herbicidal activity against harmful plants [1]: very good herbicidal activity
- herbicidal activity against harmful plants [2]: very good herbicidal activity

Compound: Cn1nc(C(F)(F)F)c(C[S+]([O-])c2ncc(I)o2)c1OC(F)F (centres unmarked) [Compound No. 1034, 5-Iodo-2-({[5-(difluoromethoxy)-1-methyl-3-(trifluoromethyl)-1H-pyrazol-4-yl]methyl}sulfinyl)-1,3-oxazole]
- herbicidal activity against harmful plants [2]: very good herbicidal activity

Compound: Cn1nc(C(F)(F)F)c(C[S@+]([O-])c2ncc(Br)o2)c1OC(F)F [Compound No. 2531]
- herbicidal activity against harmful plants [2]: very good herbicidal activity

Compound: Cn1nc(C(F)(F)F)c(C[S+]([O-])c2ncco2)c1C(F)(F)F (centres unmarked) [Compound No. 230, 2-({[1-Methyl-3,5-bis(trifluoromethyl)-1H-pyrazol-4-yl]methyl}sulfinyl)-1,3-oxazole]
- herbicidal activity against harmful plants [1]: very good herbicidal activity
- herbicidal activity against harmful plants [2]: very good herbicidal activity

Compound: Cn1nc(C(F)(F)F)c(C[S+]([O-])c2ncc(Br)o2)c1OC(F)F (centres unmarked) [Compound No. 788, 5-Bromo-2-({[5-(difluoromethoxy)-1-methyl-3-(trifluoromethyl)-1H-pyrazol-4-yl]methyl}sulfinyl)-1,3-oxazole]
- herbicidal activity against harmful plants [2]: very good herbicidal activity
